# Test results reported in PMC8213057, “Targeting ALK2: An Open Science Approach to Developing Therapeutics for the Treatment of Diffuse Intrinsic Pontine Glioma” (Journal of Medicinal Chemistry, 2020).
# Several values for one entry are separate records, joined by “and”; a condition that tells them apart may be missing. Equal values may be shown once.
# Experiments:
# DMPK2 = DMPK2 (Homo sapiens, UniProt Q6DT37); conditions: 1 μM; Run 1, Run 2
# LCK = LCK (Homo sapiens, UniProt P06239); test: biochemical; conditions: read-out: % enzyme activity, 1 μM; Run 1, Run 2
# LCK, sequence (P06239 whole entry): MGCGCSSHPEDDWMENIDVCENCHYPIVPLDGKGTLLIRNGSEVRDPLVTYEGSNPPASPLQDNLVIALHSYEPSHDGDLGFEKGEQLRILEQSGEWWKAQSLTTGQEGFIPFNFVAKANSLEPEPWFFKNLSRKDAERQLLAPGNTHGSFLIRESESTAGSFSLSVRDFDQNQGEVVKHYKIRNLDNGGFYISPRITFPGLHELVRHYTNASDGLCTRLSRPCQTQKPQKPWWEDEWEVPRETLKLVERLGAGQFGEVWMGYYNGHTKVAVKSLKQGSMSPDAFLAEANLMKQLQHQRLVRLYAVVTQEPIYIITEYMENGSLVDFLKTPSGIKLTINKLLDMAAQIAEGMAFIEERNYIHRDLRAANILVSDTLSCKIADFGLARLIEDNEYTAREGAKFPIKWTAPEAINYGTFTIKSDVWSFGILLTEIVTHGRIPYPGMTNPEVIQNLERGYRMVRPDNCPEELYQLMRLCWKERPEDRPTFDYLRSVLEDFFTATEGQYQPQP
# ALK = ALK (Homo sapiens, UniProt Q9UM73); conditions: 1 μM; Run 1, Run 2
# ALK, sequence (Q9UM73 19-1620): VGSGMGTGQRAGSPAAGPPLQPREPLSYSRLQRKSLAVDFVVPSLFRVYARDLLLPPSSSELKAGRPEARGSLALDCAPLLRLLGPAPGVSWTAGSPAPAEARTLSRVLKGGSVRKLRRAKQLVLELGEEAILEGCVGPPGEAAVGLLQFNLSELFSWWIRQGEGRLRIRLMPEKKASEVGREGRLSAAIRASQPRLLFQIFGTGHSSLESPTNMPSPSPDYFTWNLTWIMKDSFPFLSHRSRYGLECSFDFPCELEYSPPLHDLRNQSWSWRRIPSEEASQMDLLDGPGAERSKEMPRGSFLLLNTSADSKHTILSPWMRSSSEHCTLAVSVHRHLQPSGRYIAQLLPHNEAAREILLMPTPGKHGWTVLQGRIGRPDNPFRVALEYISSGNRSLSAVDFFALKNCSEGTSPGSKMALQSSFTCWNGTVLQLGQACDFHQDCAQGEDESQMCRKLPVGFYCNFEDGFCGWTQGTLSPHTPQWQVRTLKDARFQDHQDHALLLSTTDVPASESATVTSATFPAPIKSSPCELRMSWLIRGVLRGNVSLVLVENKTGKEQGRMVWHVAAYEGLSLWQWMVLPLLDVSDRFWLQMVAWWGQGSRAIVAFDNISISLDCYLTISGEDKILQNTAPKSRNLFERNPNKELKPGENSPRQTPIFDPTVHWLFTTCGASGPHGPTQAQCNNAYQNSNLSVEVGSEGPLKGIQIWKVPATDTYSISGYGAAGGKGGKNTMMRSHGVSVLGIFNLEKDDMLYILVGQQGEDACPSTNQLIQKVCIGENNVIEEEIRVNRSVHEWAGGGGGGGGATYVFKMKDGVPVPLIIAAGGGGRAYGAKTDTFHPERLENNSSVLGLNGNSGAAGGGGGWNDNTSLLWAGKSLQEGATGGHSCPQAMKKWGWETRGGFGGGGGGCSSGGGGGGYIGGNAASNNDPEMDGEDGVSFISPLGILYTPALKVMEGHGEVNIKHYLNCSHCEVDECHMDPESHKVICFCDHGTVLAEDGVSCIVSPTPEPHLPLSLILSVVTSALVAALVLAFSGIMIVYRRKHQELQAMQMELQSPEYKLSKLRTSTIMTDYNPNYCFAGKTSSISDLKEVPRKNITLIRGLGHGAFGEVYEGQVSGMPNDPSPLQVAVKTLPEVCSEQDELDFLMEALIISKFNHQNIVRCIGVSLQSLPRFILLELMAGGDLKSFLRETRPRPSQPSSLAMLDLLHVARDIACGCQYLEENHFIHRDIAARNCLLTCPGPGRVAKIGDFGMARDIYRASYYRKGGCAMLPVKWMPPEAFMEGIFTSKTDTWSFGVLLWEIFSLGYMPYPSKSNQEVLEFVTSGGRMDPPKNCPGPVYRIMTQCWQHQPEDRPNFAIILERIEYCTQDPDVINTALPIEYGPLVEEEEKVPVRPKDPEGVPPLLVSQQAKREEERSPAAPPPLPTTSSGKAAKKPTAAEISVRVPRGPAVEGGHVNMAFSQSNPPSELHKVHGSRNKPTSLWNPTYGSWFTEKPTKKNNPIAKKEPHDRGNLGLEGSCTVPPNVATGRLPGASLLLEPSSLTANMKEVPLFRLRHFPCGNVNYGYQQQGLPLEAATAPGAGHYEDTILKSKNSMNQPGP
# IKKe/IKBKE = biological target: T1, IKKe/IKBKE (Homo sapiens, UniProt Q14164); conditions: 1 μM; Run 1, Run 2
# T1 sequence (Q14164 1-716): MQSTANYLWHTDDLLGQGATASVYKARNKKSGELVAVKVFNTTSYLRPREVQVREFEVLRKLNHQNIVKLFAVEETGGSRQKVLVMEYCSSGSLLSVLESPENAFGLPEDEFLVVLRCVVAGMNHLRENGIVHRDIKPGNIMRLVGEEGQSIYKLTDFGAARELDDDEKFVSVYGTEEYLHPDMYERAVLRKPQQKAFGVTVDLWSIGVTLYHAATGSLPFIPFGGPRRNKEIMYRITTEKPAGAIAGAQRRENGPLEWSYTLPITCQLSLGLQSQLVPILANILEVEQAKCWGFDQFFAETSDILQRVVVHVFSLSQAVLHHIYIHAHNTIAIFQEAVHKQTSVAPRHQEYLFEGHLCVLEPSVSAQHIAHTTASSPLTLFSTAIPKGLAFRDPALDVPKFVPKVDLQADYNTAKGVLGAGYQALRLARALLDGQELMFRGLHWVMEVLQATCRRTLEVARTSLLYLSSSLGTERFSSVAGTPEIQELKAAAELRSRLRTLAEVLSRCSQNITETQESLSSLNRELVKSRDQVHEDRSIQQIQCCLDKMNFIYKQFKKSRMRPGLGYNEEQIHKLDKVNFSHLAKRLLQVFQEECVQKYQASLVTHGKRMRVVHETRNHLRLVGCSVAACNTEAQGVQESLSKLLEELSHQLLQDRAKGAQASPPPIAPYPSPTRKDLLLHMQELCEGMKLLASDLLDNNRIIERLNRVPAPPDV
# ULK3 = biological target: T2, ULK3 (Homo sapiens, UniProt Q6PHR2); conditions: 1 μM; Run 1, Run 2
# T2 sequence (Q6PHR2 1-472): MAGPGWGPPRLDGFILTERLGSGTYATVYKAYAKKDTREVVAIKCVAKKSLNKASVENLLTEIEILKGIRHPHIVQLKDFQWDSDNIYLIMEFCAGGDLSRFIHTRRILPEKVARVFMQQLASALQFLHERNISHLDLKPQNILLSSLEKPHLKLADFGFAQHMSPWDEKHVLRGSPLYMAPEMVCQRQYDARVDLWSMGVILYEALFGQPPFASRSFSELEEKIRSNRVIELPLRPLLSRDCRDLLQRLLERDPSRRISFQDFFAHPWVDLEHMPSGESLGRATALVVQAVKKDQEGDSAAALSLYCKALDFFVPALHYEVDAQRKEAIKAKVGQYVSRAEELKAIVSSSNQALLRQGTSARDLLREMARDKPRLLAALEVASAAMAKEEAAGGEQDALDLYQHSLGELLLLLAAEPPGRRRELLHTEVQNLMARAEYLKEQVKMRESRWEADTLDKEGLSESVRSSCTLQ
# MAK = biological target: T3, MAK (Homo sapiens, UniProt P20794); test: biochemical; conditions: read-out: % enzyme activity, 1 μM; Run 1, Run 2
# T3 sequence (P20794 1-623): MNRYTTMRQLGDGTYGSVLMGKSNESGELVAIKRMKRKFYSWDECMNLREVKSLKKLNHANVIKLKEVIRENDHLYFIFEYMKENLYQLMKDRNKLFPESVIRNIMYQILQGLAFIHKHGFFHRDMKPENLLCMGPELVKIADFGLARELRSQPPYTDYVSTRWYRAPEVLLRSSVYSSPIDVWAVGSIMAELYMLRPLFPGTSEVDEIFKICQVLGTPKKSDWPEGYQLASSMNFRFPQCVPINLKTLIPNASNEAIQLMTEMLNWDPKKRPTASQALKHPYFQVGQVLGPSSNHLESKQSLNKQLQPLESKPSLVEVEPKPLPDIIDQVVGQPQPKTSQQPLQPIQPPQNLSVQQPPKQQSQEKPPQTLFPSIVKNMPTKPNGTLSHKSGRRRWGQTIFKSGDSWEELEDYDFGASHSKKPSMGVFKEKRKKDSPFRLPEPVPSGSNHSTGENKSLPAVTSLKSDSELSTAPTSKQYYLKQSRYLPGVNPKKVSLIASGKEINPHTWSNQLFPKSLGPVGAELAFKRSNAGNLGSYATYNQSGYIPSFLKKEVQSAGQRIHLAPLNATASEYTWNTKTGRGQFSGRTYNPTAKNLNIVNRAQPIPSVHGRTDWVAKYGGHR
# PKCnu/PRKD3 = biological target: T4, PKCnu/PRKD3 (Homo sapiens, UniProt O94806); test: biochemical; conditions: read-out: % enzyme activity, 1 μM; Run 1, Run 2
# T4 sequence (O94806 1-890): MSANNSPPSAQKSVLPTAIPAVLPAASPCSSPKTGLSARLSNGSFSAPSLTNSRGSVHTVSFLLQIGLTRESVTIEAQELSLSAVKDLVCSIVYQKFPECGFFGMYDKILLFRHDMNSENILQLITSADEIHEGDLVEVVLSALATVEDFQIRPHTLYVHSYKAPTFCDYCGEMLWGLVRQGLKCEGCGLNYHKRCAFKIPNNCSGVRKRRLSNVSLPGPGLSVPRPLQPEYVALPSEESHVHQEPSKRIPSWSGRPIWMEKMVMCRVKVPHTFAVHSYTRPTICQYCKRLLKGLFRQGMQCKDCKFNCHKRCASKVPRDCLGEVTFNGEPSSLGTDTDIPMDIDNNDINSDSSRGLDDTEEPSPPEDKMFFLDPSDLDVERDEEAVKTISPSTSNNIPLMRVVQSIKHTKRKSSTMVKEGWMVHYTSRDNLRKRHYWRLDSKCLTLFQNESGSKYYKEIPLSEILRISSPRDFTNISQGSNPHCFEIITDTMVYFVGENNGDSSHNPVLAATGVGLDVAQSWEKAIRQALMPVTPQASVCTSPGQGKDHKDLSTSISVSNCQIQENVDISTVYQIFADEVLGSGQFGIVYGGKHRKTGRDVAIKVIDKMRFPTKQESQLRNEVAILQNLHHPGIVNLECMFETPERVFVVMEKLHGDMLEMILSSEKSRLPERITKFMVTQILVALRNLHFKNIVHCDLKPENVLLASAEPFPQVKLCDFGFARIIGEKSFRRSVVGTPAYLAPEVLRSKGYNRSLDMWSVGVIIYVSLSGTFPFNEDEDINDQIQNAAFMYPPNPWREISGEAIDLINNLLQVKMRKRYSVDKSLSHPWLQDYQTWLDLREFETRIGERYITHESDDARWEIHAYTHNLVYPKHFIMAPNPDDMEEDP
# DMPK2, sequence (Q6DT37 whole entry): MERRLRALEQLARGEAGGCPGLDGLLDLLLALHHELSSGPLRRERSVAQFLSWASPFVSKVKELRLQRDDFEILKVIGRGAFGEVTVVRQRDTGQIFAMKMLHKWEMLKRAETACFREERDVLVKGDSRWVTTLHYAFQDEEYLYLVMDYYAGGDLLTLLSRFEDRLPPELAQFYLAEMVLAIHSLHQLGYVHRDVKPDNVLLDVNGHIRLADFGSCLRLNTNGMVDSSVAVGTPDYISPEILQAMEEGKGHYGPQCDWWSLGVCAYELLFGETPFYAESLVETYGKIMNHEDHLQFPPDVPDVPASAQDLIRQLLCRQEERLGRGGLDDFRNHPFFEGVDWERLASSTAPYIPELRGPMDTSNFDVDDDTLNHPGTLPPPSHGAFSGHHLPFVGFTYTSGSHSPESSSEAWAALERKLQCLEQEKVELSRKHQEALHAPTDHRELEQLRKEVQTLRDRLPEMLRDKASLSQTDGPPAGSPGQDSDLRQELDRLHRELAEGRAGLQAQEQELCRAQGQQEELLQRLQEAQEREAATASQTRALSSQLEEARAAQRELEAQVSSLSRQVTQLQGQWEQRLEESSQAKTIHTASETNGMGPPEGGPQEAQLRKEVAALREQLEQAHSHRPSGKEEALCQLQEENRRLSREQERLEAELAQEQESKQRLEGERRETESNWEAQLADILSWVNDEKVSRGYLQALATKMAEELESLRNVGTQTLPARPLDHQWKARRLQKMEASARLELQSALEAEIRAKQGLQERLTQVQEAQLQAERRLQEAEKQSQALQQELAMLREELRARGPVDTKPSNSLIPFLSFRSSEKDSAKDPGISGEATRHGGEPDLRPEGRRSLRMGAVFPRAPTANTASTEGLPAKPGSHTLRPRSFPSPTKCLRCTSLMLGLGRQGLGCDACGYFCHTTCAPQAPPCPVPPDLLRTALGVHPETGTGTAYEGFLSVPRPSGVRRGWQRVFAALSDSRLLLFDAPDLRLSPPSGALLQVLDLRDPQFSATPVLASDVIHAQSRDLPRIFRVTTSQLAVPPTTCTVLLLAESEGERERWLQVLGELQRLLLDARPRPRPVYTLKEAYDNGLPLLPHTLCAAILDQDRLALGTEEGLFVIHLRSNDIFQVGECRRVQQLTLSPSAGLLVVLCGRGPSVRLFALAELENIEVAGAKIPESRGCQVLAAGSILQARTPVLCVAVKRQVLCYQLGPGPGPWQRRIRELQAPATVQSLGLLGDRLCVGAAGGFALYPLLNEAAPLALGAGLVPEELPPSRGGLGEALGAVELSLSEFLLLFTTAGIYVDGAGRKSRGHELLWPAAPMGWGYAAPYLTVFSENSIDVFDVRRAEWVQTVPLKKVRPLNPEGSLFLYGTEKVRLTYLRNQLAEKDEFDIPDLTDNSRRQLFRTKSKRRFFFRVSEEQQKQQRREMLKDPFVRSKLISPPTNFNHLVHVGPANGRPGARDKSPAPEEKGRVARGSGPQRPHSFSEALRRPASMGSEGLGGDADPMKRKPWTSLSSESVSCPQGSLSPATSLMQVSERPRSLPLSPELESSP
structure (smiles),measurement,setting,value
"COc1cc(-c2cncc(-c3ccc(N4CCN(C)CC4)cc3)c2C)cc(F)c1C(N)=O [Compound 26a, 2-Fluoro-6-methoxy-4-(4-methyl-5-(4-(4-methylpiperazin-1-yl)phenyl)pyridin-3-yl)benzamide]",% enzyme activity,DMPK2,82.52%
same,remaining activity at 1 µM,LCK,93.2%
same,% enzyme activity,ALK,99.31%
same,% enzyme activity,IKKe/IKBKE,87.51%
same,% enzyme activity at 1 μM,TNK1,105% and 99.5%
same,% enzyme activity,ULK3,91.23%
same,remaining activity at 1 µM,MAK,99.2%
same,remaining activity at 1 µM,PKCnu/PRKD3,82.2%
"COc1cc(-c2cncc(-c3ccc(N4C[C@@H](C)N(C)[C@@H](C)C4)cc3)c2C)cc(F)c1C(N)=O [Compound 26c, 2-Fluoro-6-methoxy-4-(4-methyl-5-(4-((3R,5S)-3,4,5-trimethylpiperazin-1-yl)phenyl)pyridin-3-yl)benzamide]",% enzyme activity,DMPK2,86.97%
same,remaining activity at 1 µM,LCK,101%
same,% enzyme activity,ALK,96.51%
same,% enzyme activity,IKKe/IKBKE,94.75%
same,% enzyme activity at 1 μM,TNK1,98.6% and 98.2%
same,% enzyme activity,ULK3,97.24%
same,remaining activity at 1 µM,MAK,119%
same,remaining activity at 1 µM,PKCnu/PRKD3,89%
